In patent publication US20050209157A1, “Short bioactive peptides and methods for their use” (priority 2001, published 2005):
Converted amounts (≈) assume the structure as drawn. Like-named read-outs stand apart in the source and are kept apart here. No end group written: not given here.

Columns and labels:
[1] = test system: Candida albicans 105; assay type: cell-based; settings: in µg/mL
[2] = test system: Pseudomonas aeruginosa H187; assay type: cell-based; settings: in µg/mL
[3] = test system: S. typhimurium 14028S; assay type: cell-based, Salmonella typhimurium
[4] = test system: Candida tropicalis ATCC13803; assay: Antimicrobial assays II, NCCLS broth microdilution MIC; assay type: cell-based; settings: Table 10
Procedure: Anti-microbial activity against a broader range of pathogens (including clinical strains) than were tested in Example 2. It should be noted that somewhat different protocols were employed for the assays in Example 2 and Example 3.
MICs were determined for this Example using a slightly modified version of the NCCLS (National Committee for Clinical Laboratory Standards) broth microdilution method as described previously (Steinberg et al., AAC 41: 1738, 1997). Briefly, antimicrobial agents were prepared as 10× concentrates in the most appropriate solvent. For the peptide, 0.01% acetic acid containing 0.2% bovine serum albumin as a carrier protein was used. Inocula were prepared by resuspending colonies from a BAP in medium and adjusting the suspension to match that of a 0.5 McFarland standard. The suspension was diluted into fresh medium (as recommended by NCCLS for the organism) to give 2×10^5 to 7×10^5 CFU/ml for bacteria or 2×10^3 to 7×10^3 CFU/ml for Candida. After dispensing 100 μl aliquots of the microbial suspension into each well of a 96-well polypropylene microtiter plate, 11 μl of test compound was added. […] For facultative anaerobes incubation was performed in 7% carbon dioxide and for strict anaerobes in an oxygen free environment maintained using a standard anaerobic “jar”. All MICs were performed three times and the mean value determined.

[5] = test system: Candida glabrata ATCC15126; assay: as above; assay type: cell-based; settings: Table 10; in µg/mL
[6] = test system: S. aureus (MRSA); assay type: cell-based, Staphylococcus aureus; settings: in µg/mL
[7] = test system: E. coli UB1005; assay type: cell-based, Escherichia coli
[8] = test system: Staph. aureus 29213; assay: microbe, parasite or virus in culture; settings: for MBC: Staphylococcus aureus, 29213, read-out: MBC, Without peptide; for MBC, With 5 μg/mL peptide: with 5 μg/mL peptide Shiva-10
Source text: This experiment determined the peptide MBC in the absence of the antimicrobial agent, or in the presence of the indicated concentration of antimicrobial agent

[9] = test system: P. aeruginosa H374; assay type: cell-based, Pseudomonas aeruginosa; settings: Table 14; in µg/mL
[10] = test system: S. epidermidis C621; assay type: cell-based, Staphylococcus epidermidis; settings: Table 15

Compound	MIC C. albicans 105 ([1]; Table 10)	MIC P. aeruginosa H187 ([2]; Table 11)	MIC S. typhimurium 14028S ([3]; Table 11) [µg/mL]	MIC C. tropicalis ATCC13803 [4] [µg/mL]	MIC C. glabrata ATCC15126 [5]	MIC S. aureus SAP0017 ([6]; Table 11, strain SAP0017)	MIC E. coli UB1005 ([7]; Table 11) [µg/mL]	MBC [8] [µg/mL]	MBC, With 5 μg/mL peptide [8] [µg/mL]	MIC C. albicans 105 ([1]; Table 15)	MIC P. aeruginosa H187 ([2]; Table 15)	MIC S. typhimurium 14028S ([3]; Table 14) [µg/mL]	MIC P. aeruginosa H374 [9]	MIC S. epidermidis C621 [10] [µg/mL]	MIC S. aureus SAP0017 ([6]; Table 15, strain SAP0017)	MIC E. coli UB1005 ([7]; Table 14) [µg/mL]
FAKKLKKLAKKL-NH2 [P79 (54)]	32	>128	> 128	2	128	>128	32	–	–	–	–	–	–	–	–	–
CC1(C)S[C@@H]2[C@H](NC(=O)[C@H](N)c3ccccc3)C(=O)N2[C@H]1C(=O)O [Ampicillin]	–	–	–	–	–	–	–	5 (≈ 14.3 µM)	2.5 (≈ 7.15 µM)	–	–	–	–	–	–	–
FAKLLAKLAKKL-NH2 [P49 (31)]	16	16-64	64	2	16	64	32	–	–	–	–	–	–	–	–	–
FKLAFKLAKKAFL-NH2 [P122 (84)]	32	32-128	128	4	64	128	64	–	–	–	–	–	–	–	–	–
FAKKALKALKKL-NH2 [P47 (29)]	32	64-128	> 128	1	64	>128	64	–	–	–	–	–	–	–	–	–
FAKKLAKLAKKL-NH2 [P106 (70)]	32	>128	> 128	2	64	>128	64	–	–	–	–	–	–	–	–	–
FAKLLAKFLKKAL-NH2 [P113 (77)]	32	32-128	44	4	32	32	32	–	–	–	–	–	–	–	–	–
FALAKKALKKAKKAL-NH2 [P40 (22)]	32	>128	> 128	1	32	>128	64	–	–	–	–	–	–	–	–	–
VAKLLAKLAKKVL-NH2 [P154 (116)]	64	>128	> 128	8	128	>128	64	–	–	–	–	–	–	–	–	–
FAKLLAKALKLKL-NH2 [P101 (65)]	32	32-128	128	4	32	128	32	–	–	–	–	–	–	–	–	–
FALALKLAKKAL-NH2 [P167 (128)]	64	128	64	8	128	128	32	–	–	–	–	–	–	–	–	–
NC[C@H]1O[C@H](O[C@H]2[C@H](O)[C@@H](O[C@H]3O[C@H](CO)[C@@H](O)[C@H](N)[C@H]3O)[C@H](N)C[C@@H]2N)[C@H](N)C[C@@H]1O [Tobramycin]	–	–	–	–	–	–	–	25 (≈ 53.5 µM)	10 (≈ 21.4 µM)	–	–	–	–	–	–	–
FALALKALKK-NH2 [P169 (130)]	64	128	64	8	128	>128	32	–	–	64	>128	64	128	32	>128	64
FAKKLAKKAKLAKKL-NH2 [P77 (53)]	16	64-128	> 128	1	64	>128	64	–	–	–	–	–	–	–	–	–
FAKLLAKALKKL-NH2 [P103 (67)]	16	64	128	2	16	64	32	–	–	–	–	–	–	–	–	–
FAKKLAKKLAKAL-NH2 [P74 (50)]	16	32-128	64	1	16	>128	16	–	–	–	–	–	–	–	–	–
